Results published in publication PMC6814258 (Pharmaceutical research, 2019).
Structures can show the parent of a compound that is named as a salt.

How the values were obtained:
Type in all cases: cell-based
[1] = molecular target: T1, Nav1.8 (Homo sapiens, UniProt Q9Y5Y9); assay: Nav1.8 FLIPR HTS; details: HEK293, read-out: Average percent inhibition at 10 μM (Nav1.8)
[2] = molecular target: T1, Nav1.8; assay: Nav1.8 automated patch clamp
[3] = molecular target: human KV7.1 (Homo sapiens, UniProt P51787); assay: KV7.1 86Rb+ efflux HTS; details: for inhibition at 10 µM: CHO, read-out: Average percent inhibition at 10 μM (KCNQ1)
Sequence of human KV7.1 (P51787 whole entry): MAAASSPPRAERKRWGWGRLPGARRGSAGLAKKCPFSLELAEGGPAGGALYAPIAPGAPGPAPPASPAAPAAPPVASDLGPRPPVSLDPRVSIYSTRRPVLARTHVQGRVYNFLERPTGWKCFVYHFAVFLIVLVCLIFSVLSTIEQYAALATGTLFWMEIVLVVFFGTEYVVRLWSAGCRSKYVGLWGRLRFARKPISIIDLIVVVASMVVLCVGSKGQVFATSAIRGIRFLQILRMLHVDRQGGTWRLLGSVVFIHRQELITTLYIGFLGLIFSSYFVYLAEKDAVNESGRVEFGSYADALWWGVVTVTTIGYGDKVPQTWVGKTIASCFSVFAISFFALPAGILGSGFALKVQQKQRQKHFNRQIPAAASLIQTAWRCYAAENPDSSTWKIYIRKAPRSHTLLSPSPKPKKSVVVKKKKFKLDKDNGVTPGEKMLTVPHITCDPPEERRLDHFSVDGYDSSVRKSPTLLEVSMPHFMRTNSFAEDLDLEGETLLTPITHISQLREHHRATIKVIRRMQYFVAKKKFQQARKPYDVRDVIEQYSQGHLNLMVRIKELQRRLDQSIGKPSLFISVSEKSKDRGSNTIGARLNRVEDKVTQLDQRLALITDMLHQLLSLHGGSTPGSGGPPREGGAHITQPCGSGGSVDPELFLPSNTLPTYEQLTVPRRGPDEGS

T1 sequence (Q9Y5Y9 whole entry): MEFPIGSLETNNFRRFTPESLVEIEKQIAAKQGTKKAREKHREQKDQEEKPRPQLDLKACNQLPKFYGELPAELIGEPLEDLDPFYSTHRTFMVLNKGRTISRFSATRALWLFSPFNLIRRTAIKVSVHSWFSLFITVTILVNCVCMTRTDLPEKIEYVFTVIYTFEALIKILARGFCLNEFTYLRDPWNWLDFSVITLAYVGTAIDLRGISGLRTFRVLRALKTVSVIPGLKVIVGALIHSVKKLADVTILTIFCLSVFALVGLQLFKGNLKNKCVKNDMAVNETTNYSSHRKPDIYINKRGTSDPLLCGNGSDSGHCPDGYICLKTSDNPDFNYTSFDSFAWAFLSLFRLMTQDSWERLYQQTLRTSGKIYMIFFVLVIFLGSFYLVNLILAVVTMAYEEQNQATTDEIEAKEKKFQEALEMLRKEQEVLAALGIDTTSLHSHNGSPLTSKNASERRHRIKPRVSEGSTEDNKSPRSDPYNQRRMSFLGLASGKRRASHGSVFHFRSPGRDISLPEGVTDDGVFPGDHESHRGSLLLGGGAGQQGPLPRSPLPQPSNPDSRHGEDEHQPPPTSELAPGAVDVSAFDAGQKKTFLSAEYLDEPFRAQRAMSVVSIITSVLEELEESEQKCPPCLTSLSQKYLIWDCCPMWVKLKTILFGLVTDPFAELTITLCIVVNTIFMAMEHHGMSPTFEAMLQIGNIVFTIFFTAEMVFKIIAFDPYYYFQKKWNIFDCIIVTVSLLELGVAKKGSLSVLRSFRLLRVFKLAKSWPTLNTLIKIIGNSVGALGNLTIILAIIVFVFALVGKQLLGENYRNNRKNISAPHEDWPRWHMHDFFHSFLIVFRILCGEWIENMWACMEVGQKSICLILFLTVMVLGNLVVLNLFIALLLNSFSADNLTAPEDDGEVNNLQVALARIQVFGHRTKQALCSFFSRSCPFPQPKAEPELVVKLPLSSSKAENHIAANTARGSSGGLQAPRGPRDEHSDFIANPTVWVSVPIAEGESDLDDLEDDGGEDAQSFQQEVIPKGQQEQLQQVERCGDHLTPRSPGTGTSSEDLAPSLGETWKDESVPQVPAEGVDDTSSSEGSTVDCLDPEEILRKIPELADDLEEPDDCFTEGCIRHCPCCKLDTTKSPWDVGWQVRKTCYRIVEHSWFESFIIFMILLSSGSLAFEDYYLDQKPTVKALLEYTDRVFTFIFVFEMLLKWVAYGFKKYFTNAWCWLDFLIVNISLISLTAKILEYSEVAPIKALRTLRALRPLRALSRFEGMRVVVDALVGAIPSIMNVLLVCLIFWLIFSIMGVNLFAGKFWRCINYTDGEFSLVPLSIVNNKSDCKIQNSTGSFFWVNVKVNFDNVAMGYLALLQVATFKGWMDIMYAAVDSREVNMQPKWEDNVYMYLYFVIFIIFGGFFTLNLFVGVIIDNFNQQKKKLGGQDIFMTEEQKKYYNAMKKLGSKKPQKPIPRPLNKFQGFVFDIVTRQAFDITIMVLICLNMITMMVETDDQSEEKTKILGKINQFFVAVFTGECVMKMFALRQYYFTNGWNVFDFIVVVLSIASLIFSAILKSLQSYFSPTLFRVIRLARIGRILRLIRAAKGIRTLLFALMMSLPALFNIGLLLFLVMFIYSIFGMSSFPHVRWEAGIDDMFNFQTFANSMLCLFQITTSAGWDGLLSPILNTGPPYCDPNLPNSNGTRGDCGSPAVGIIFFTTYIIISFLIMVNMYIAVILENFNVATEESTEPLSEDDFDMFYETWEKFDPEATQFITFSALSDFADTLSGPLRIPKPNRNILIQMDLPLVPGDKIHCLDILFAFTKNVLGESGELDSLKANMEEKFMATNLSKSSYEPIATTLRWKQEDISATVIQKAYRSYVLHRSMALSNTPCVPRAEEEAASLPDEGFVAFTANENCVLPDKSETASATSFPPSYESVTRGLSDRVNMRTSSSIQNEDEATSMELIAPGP

## COC(=O)C1=C(C)NC(C)=C(C(=O)OC2CCCN(Cc3ccccc3)C2)C1c1cccc([N+](=O)[O-])c1 (stereo not shown) [Benidipine hydrochloride]
[1]
  inhibition at 10 µM: 113%
[2]
  IC50: 4400 nM
[3]
  inhibition at 10 µM: 51.1%

## COCCOC(=O)C1=C(C)NC(C)=C(C(=O)OC(C)C)C1c1cccc([N+](=O)[O-])c1 (stereo not shown) [Nimodipine]
[1]
  inhibition at 10 µM: 96.1%
[2]
  IC50: 1200 nM

## COC(=O)C1=C(C#N)NC(C)=C(C(=O)OC(C)C)C1c1cccc([N+](=O)[O-])c1 (stereo not shown) [Nilvadipine]
[1]
  inhibition at 10 µM: 87.9%
[2]
  IC50: 600 nM

## CCOC1O[C@H]([C@@H](COCc2ccccc2)OCc2ccccc2)[C@H](OCc2ccccc2)[C@H]1O (stereo partly shown) [Tribenoside]
[1]
  inhibition at 10 µM: 86.2%
[3]
  inhibition at 10 µM: 48.8%

## O=C(c1ccc(OCCN2CCCCC2)cc1)c1c(-c2ccc(O)cc2)sc2cc(O)ccc12 [Raloxifene hydrochloride]
[1]
  inhibition at 10 µM: 88.4%
[3]
  inhibition at 10 µM: 43.3%

## CCOC(=O)[C@H](CCc1ccccc1)N[C@H]1CCc2ccccc2N(CC(=O)O)C1=O [Benazepril hydrochloride]
[3]
  inhibition at 10 µM: 44.8%

## C#C[C@]1(O)CC[C@H]2[C@@H]3[C@H](C)CC4=C(CCC(=O)C4)[C@H]3CC[C@@]21C [Tibolone]
[3]
  inhibition at 10 µM: 87.6%

## C[C@]12CC[C@@H]3c4ccc(O)cc4CC[C@H]3[C@@H]1CC[C@@H]2O [Estradiol-17 beta]
[3]; 10 μM, n=2, CHO cells, 86Rb+ efflux, normalized to 10 μM chromanol 293B control
  Average percent inhibition at 10 μM (KCNQ1): 56.3%

## C[C@]12CC[C@H]3C(=CCc4cc(O)ccc43)[C@@H]1CCC2=O [Equilin]
[3]
  inhibition at 10 µM: 64.6%

## Clc1ccc(C(c2ccccc2Cl)C(Cl)Cl)cc1 (stereo not shown) [Mitotane]
[3]
  inhibition at 10 µM: 49.5%

## COc1ccc(C(=O)c2ccccc2)c(O)c1 [Oxybenzone]
[3]
  inhibition at 10 µM: 57.4%

## CCOC(=O)C1=C(C)NC(C)=C(C(=O)OC)C1c1cccc([N+](=O)[O-])c1 (stereo not shown) [Nitrendipine]
[3]
  inhibition at 10 µM: 46.1%

## CSc1nc2cc(Cl)c(Oc3cccc(Cl)c3Cl)cc2[nH]1 [Triclabendazole]
[3]
  inhibition at 10 µM: 76%

## CC[C@H](c1ccc(O)cc1)[C@@H](CC)c1ccc(O)cc1 [Hexestrol]
[1]
  inhibition at 10 µM: 91.6%
[3]
  inhibition at 10 µM: 82%

## Clc1ccccc1C(c1ccccc1)(c1ccccc1)n1ccnc1 [Clotrimazole]
[3]
  inhibition at 10 µM: 46.3%

## CCN1CCN(C(=O)N[C@@H](C(=O)N[C@@H]2C(=O)N3[C@@H]2SC(C)(C)[C@@H]3C(=O)O)c2ccccc2)C(=O)C1=O [Piperacillin sodium salt]
[3]
  inhibition at 10 µM: 43.5%

## CC(C)c1c(CN(C)C(C)Cc2ccccc2)n(C)n(-c2ccccc2)c1=O (stereo not shown) [Famprofazone]
[3]
  inhibition at 10 µM: 50.7%

## CC/C(=C(/CC)c1ccc(O)cc1)c1ccc(O)cc1 [Diethylstilbestrol]
[1]
  inhibition at 10 µM: 99.5%
[3]
  inhibition at 10 µM: 90.2%

## C[C@]12Cc3c[nH]nc3C[C@@H]1CC[C@@H]1[C@@H]2CC[C@@]2(C)[C@H]1CC[C@]2(C)O [Stanozolol]
[3]
  inhibition at 10 µM: 43.6%

## COC(=O)C1=C(C)NC(C)=C(C(=O)OCCN(C)Cc2ccccc2)C1c1cccc([N+](=O)[O-])c1 (stereo not shown) [Nicardipine hydrochloride]
[1]
  inhibition at 10 µM: 123%
[2]
  IC50: 600 nM
[3]
  inhibition at 10 µM: 50.7%

## O=C1Nc2ccc(Cl)cc2[C@@](C#CC2CC2)(C(F)(F)F)O1 [Efavirenz]
[3]
  inhibition at 10 µM: 80.3%

## Clc1ccc(CCC(Cn2ccnc2)Sc2c(Cl)cccc2Cl)cc1 (stereo not shown) [Butoconazole nitrate]
[3]
  inhibition at 10 µM: 67%

## Cc1c(C)c2c(c(C)c1O)CCC(C)(COc1ccc(CC3SC(=O)NC3=O)cc1)O2 (stereo not shown) [Troglitazone]
[3]
  inhibition at 10 µM: 73%

## COc1ccc(Cc2nccc3cc(OC)c(OC)cc23)cc1OC [Papaverine hydrochloride]
[3]
  inhibition at 10 µM: 45.6%

## c1ccc2c(c1)Nc1ccccc1S2 [Phenothiazine]
[3]
  inhibition at 10 µM: 59.8%

## Clc1ccc(COC(Cn2ccnc2)c2ccc(Cl)cc2Cl)cc1 (stereo not shown) [Econazole nitrate]
[3]
  inhibition at 10 µM: 85.6%

## Oc1cc(Cl)ccc1Oc1ccc(Cl)cc1Cl [Triclosan]
[1]
  inhibition at 10 µM: 87.8%
[3]
  inhibition at 10 µM: 74%

## O=C(OCCOCCO)c1ccccc1Nc1cccc(C(F)(F)F)c1 [Etofenamate]
[3]
  inhibition at 10 µM: 51.8%

## CC1(C)O[C@@H]2[C@@H](CO[C@@]3(COS(N)(=O)=O)OC(C)(C)O[C@@H]23)O1 [Topiramate]
[3]
  inhibition at 10 µM: 44.3%

## CC(=O)SCC(Cc1ccccc1)C(=O)NCC(=O)OCc1ccccc1 (stereo not shown) [Racecadotril]
[1]
  inhibition at 10 µM: 94.8%
[3]
  inhibition at 10 µM: 46.4%

## C/C=C(/C(=C/C)c1ccc(O)cc1)c1ccc(O)cc1 [Dienestrol]
[3]
  inhibition at 10 µM: 61.3%

## CCc1oc2ccccc2c1C(=O)c1cc(Br)c(O)c(Br)c1 [Benzbromarone]
[3]
  inhibition at 10 µM: 58.1%

## CS(=O)(=O)Nc1ccc([N+](=O)[O-])cc1Oc1ccccc1 [Nimesulide]
[3]
  inhibition at 10 µM: 47.9%

## C#C[C@]1(O)CC[C@H]2[C@@H]3CCc4cc(O)ccc4[C@H]3CC[C@@]21C [Ethinylestradiol]
[3]
  inhibition at 10 µM: 75.8%
